BindingDB's records for doi:10.1021/jm040129+ (The Johns Hopkins University, 2004)

Target: T1, 1,25-dihydroxyvitamin D(3) 24-hydroxylase, mitochondrial (Homo sapiens, UniProt Q07973)
T1 sequence (Q07973 whole entry): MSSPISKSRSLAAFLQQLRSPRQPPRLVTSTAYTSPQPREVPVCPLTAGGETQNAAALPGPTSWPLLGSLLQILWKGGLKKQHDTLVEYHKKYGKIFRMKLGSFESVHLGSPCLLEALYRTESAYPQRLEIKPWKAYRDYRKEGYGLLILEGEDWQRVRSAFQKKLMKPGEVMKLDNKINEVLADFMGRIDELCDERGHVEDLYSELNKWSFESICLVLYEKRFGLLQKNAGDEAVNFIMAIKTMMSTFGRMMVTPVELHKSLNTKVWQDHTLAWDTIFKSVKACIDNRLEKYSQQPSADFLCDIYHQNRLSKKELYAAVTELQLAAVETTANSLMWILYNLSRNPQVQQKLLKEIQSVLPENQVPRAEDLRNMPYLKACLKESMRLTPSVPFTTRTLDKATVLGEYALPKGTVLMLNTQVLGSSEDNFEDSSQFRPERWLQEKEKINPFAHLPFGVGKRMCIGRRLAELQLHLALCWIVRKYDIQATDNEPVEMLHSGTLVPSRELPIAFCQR
Assay: Inhibition of human CYP24 hydroxylase expressed in V79 cells

## C=C1/C(=C\C=C2/CCC[C@]3(C)[C@@H](C(C)=CC(F)=S(N)(=O)c4ccccc4)CC[C@@H]23)C[C@@H](O)C[C@@H]1O (stereo partly specified)
  IC50: > 1 µM
